Results reported in paper PMC4595804, “A strategy to discover decoy chemokine ligands with an anti-inflammatory activity” (Scientific Reports, 2015).

Target: T1, CCL22 (Homo sapiens, UniProt O00626)
T1 construct: codes for the mature CCL17 or CCL22 with an N-terminal thioredoxin-hexahistidin (TRX- (His)6) tag; thioredoxin (TRX) (N, cleaved yes); (His)6 (N, cleaved yes); made in house; host or cells: E. coli BL21 (DE3)
T1 sequence (O00626 25-93): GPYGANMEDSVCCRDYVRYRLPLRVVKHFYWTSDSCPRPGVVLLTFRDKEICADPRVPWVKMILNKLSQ
Test: CCL22-induced CCR4+ HUT78 T cell chemotaxis (Transwell), neutraligand protocol
Assay type: cell-based
Settings: 3 nM CCL22 preincubated 1 h with compound; read-out: IC50, inhibition of CCL22-induced HUT78 chemotaxis
Experimental: Figure 6 (a) Selectivity of CCL17 and CCL22 neutraligands towards 10 chemokines according to the “neutraligand protocol”. […] Each column represents the mean (block) ± SD (bars) of n = 3 experiments performed in triplicate. *p < 0.05; **p < 0.01; ***p < 0.005 as compared to chemokine + DMSO. (b) Chemokine neutraligands inhibited CCR4 endocytosis induced by CCL22 or CCL17. EGFP-CCR4^+ HEK cells were incubated for 30 min with DMSO or chemokine (100 nM CCL22 or CCL17) in the presence or absence of test compounds. […] Cell surface EGFP-tagged CCR4 receptors were measured by EGFP antibody labeling and flow cytometry analysis. CCR4 internalization was expressed as a percentage of total receptor surface expression calculated using control cells incubated with DMSO (100%). […] The number of migrating cells in the presence of chemokine and compounds were expressed as the corresponding percentages. Results were analyzed by fitting the experimental curves (% of migrating cells vs log compound concentration) using the Kaleidagraph software program, and the corresponding IC50 values were calculated. […]
The T- cell line, HUT78 (ATCC), was cultured in RPMI 1640 supplemented with streptomycin, penicillin and 10% FCS without phenol red. […] After a 2 h incubation at 37 °C and 5%CO2, the plates were read with an excitation wavelength of 485 nm and an emission wavelength of 535 nm. […]

## O=C(OCC(O)CO)c1ccccc1O (stereo not shown) [GPN136, 2,3-dihydroxypropyl 2-hydroxybenzoate]
  IC50: 0.34 ± 0.1 nM
